# Reference: US20260176320A1, “MODULATORS OF G-PROTEIN COUPLED RECEPTORS” (priority 2018, published 2026)
# Like-named read-outs stand apart in the source and are kept apart here. Numbered stars: 1 amine (or outer) side, 2 acyl side, 3 side chain; on linkers, the order of the positions; unused ones are H or OH. Square brackets hold non-standard residues; d marks the D form. Side chains are listed from the residue outwards. Peptide text beside a SMILES is read from it. * marks the point of attachment. X1 = O=C(CSCC(=O)*)NCCN1C(=O)c2ccccc2C1=O; γGlu = O=C(O)[C@H](CCC(=O)[*:2])N[*:1]; X2 = O=C(CSCC(=O)*)NCCN1C(=O)CSC1=O; Palmitoyl = CCCCCCCCCCCCCCCC(=O)*; Aib = CC(C)(N)C(=O)O
# Key:
# Format in all cases: cell-based
# GIP-R = target: T1, GIP-R (Homo sapiens, UniProt P48546); assay: HitHunter cAMP assay (GIP-R); details: cAMP; for Emax: read-out: (Emax) GIP-R; for EC50: read-out: EC50 GIP-R/nM
# T1 sequence (P48546 22-466): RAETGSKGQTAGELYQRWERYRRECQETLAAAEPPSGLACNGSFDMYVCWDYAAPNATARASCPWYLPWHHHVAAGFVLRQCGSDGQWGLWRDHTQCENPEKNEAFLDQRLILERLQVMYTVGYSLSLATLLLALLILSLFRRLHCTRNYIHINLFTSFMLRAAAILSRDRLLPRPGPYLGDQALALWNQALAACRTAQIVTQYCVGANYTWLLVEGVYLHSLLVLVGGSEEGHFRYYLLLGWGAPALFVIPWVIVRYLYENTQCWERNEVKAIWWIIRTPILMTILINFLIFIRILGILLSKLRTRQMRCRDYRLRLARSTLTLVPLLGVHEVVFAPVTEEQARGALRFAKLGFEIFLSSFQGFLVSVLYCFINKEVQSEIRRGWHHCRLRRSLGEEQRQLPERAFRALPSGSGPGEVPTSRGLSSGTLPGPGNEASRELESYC
# Summary of the method: (§1)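 Luminescent readout of cAMP by enzyme-fragment immunocompetition gave agonist concentration-response data. Cells (10,000/well) sat in HBSS buffer containing IBMX 625 μM, HEPES 10 mM and BSA 0.2%, exposed to agonist for 30 min at room temperature.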
# GLP-1R [1] = target: T2, GLP-1R (Homo sapiens, UniProt P43220); assay: PathHunter β-arrestin assay
# Procedure: The effects of the chemical entities described herein on β-arrestin signaling and associated downstream processes (e.g., those delineated above) can be assessed using conventional methods, e.g., PathHunter β-arrestin Assay for determining β-arresting coupling (see Examples section). […] It has been shown that b-arrestin coupling is a key strep in receptor internalization and subsequent de-sensitization and attenuation of signaling.
# 5,000 cells were seeded in appropriate cell culture media per well in a low volume 384-well tissue culture plate. The assay plate was incubated with cells overnight at 37° C. and 5% CO2. The media was removed, and 5 μL of appropriate cell culture media containing 0.2% BSA was added. Agonist serial dilutions in a separate 384 well dilution plate in a 22-point series of 2× dilutions of agonist in DMSO were performed as follows. 80 μL of the highest concentration of Agonist/DMSO was added to well No. 1. 40 μL was removed from well No. 1, and added to well No. 2, followed by gentle mixing. […] This process was repeated until well No. 22. Additional serial dilutions for additional agonists were set up in a similar manner. 100 nL of each 2× agonist serial dilution was added in duplicate to the designated agonist rows of the assay plate using the Labcyte ECHO. Assay plate was incubated for 90 minutes at 37° C. and 5% CO2. A stock of Working Detection Solution in a separate 15 ml polypropylene tube was prepared by mixing 19 parts of Cell Assay Buffer, 5 parts of Substrate Reagent 1, 1 part Substrate Reagent 2. […] Plates were spun down briefly. Assay plate was incubated for 3 hour at room temperature in the dark for the immunocompetition reaction to occur. Samples were read on Tecan i-control plate reader using luminescence mode with 100 ms integration time. Data analysis was performed using GraphPad Prism.
# GLP-1R [2] = target: T2, GLP-1R; assay: HitHunter cAMP assay (GLP-1R); details: cAMP; for Emax: read-out: (Emax) GLP-1R; for EC50: read-out: EC50 GLP-1R/nM
# Summary of the method: as §1
# [3] = PathHunter β-arrestin assay, read-out: β-arrestin activity EC50
# T2 sequence (P43220 24-463): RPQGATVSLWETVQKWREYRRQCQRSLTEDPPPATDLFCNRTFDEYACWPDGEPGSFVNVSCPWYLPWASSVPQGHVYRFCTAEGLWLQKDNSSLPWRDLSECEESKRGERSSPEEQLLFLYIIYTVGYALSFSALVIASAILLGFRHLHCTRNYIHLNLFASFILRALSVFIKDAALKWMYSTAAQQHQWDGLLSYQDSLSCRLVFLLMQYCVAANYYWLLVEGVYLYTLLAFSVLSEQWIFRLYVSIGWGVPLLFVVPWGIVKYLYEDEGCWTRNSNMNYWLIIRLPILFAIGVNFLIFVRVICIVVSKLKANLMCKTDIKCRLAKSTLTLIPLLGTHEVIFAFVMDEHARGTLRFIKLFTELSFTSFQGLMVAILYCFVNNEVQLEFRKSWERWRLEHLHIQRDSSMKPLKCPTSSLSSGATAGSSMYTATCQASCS
Compound,Emax (GIP-R; Table 3) [%],EC50 (GIP-R; Table 3) [nM],Emax (GIP-R; Table 3A) [%],EC50 (GIP-R; Table 3A) [nM],EC50 (GLP-1R [1]; [3]) [nM],Emax (GLP-1R [2]; Table 3) [%],EC50 (GLP-1R [2]; Table 3) [nM],Emax (GLP-1R [2]; Table 3A) [%],EC50 (GLP-1R [2]; Table 3A) [nM],EC50 (GLP-1R [1]) [nM]
CCCCCCCCCCCCCCCC(=O)N[C@@H](CCC(=O)NCCCC[C@H](NC(=O)[C@H](CO)NC(=O)[C@@H]1CCCN1C(=O)[C@@H]1CCCN1C(=O)[C@@H]1CCCN1C(=O)[C@H](C)NC(=O)CNC(=O)[C@H](CO)NC(=O)[C@H](CO)NC(=O)[C@@H]1CCCN1C(=O)CNC(=O)CNC(=O)[C@H](C)NC(=O)[C@H](CC(C)C)NC(=O)[C@H](CC(C)C)NC(=O)[C@H](Cc1c[nH]c2ccccc12)NC(=O)[C@H](CC(N)=O)NC(=O)[C@@H](NC(=O)[C@H](Cc1ccccc1)NC(=O)[C@H](CCC(=O)O)NC(=O)C(C)(C)NC(=O)[C@H](C)NC(=O)[C@H](C)NC(=O)[C@H](CCC(N)=O)NC(=O)[C@H](CCCCN)NC(=O)[C@H](CC(=O)O)NC(=O)[C@H](CCSC)NC(=O)[C@H](CCC(N)=O)NC(=O)[C@@H](NC(=O)[C@H](CO)NC(=O)[C@H](Cc1ccc(O)cc1)NC(=O)[C@H](CC(=O)O)NC(=O)[C@H](CO)NC(=O)[C@@H](NC(=O)[C@H](Cc1ccccc1)NC(=O)[C@@H](NC(=O)CNC(=O)[C@H](CCC(=O)O)NC(=O)CSCC(=O)NCCN1C(=O)CSC1=O)[C@@H](C)O)[C@@H](C)O)[C@@H](C)CC)C(C)C)C(N)=O)C(=O)O [Compound 72] (X2-EGTFTSDYSIQMDKQAA[Aib]EFVNWLLAGGPSSGAPPPSK([γGlu-Palmitoyl])-NH2),87,0.1 to 1,87,0.1 to 1,> 1000,105,0.1 to 1,105,0.1 to 1,–
CC[C@H](C)[C@H](NC(=O)[C@H](CO)NC(=O)[C@H](Cc1ccc(O)cc1)NC(=O)[C@H](CC(=O)O)NC(=O)[C@H](CO)NC(=O)[C@@H](NC(=O)[C@H](Cc1ccccc1)NC(=O)[C@@H](NC(=O)CNC(=O)[C@H](CCC(=O)O)NC(=O)CCNC(=O)NCCN1C(=O)CSC1=O)[C@@H](C)O)[C@@H](C)O)C(=O)N[C@@H](Cc1ccc(O)cc1)C(=O)N[C@@H](CC(C)C)C(=O)N[C@@H](CC(=O)O)C(=O)N[C@@H](CCCCN)C(=O)N[C@@H](CCC(N)=O)C(=O)N[C@@H](C)C(=O)N[C@@H](C)C(=O)NC(C)(C)C(=O)N[C@@H](CCC(=O)O)C(=O)N[C@@H](Cc1ccccc1)C(=O)N[C@H](C(=O)N[C@@H](CC(N)=O)C(=O)N[C@@H](Cc1c[nH]c2ccccc12)C(=O)N[C@@H](CC(C)C)C(=O)N[C@@H](CC(C)C)C(=O)N[C@@H](C)C(=O)NCC(=O)NCC(=O)N1CCC[C@H]1C(=O)N[C@@H](CO)C(=O)N[C@@H](CO)C(=O)NCC(=O)N[C@@H](C)C(=O)N1CCC[C@H]1C(=O)N1CCC[C@H]1C(=O)N1CCC[C@H]1C(=O)N[C@@H](CO)C(=O)N[C@@H](CCCCN)C(N)=O)C(C)C [Compound 148],64 to 67,1 to 10,64 to 67,1 to 10,> 1000,99,0.1 to 1,99,0.1 to 1,–
CC[C@H](C)[C@H](NC(=O)[C@H](CO)NC(=O)[C@H](Cc1ccc(O)cc1)NC(=O)[C@H](CC(=O)O)NC(=O)[C@H](CO)NC(=O)[C@@H](NC(=O)[C@H](Cc1ccccc1)NC(=O)[C@@H](NC(=O)CNC(=O)[C@H](CCC(=O)O)NC(=O)CSCC(=O)NCCN1C(=O)c2ccccc2C1=O)[C@@H](C)O)[C@@H](C)O)C(=O)N[C@@H](Cc1ccc(O)cc1)C(=O)N[C@@H](CC(C)C)C(=O)N[C@@H](CC(=O)O)C(=O)N[C@@H](CCCCN)C(=O)N[C@@H](CCC(N)=O)C(=O)N[C@@H](C)C(=O)N[C@@H](C)C(=O)NC(C)(C)C(=O)N[C@@H](CCC(=O)O)C(=O)N[C@@H](Cc1ccccc1)C(=O)N[C@H](C(=O)N[C@@H](CCC(=O)O)C(=O)N[C@@H](Cc1c[nH]c2ccccc12)C(=O)N[C@@H](CC(C)C)C(=O)N[C@@H](CC(C)C)C(=O)N[C@@H](C)C(=O)NCC(=O)NCC(=O)N1CCC[C@H]1C(=O)N[C@@H](CO)C(=O)N[C@@H](CO)C(=O)NCC(=O)N[C@@H](C)C(=O)N1CCC[C@H]1C(=O)N1CCC[C@H]1C(=O)N1CCC[C@H]1C(=O)N[C@@H](CO)C(=O)N[C@@H](CCCCN)C(N)=O)C(C)C [compound 149] (X1-EGTFTSDYSIYLDKQAA[Aib]EFVEWLLAGGPSSGAPPPSK-NH2),–,–,–,–,–,–,–,–,–,> 1000
CCCCCCCCCCCCCCCC(=O)N[C@@H](CCC(=O)NCCCC[C@H](NC(=O)[C@H](CO)NC(=O)[C@@H]1CCCN1C(=O)[C@@H]1CCCN1C(=O)[C@@H]1CCCN1C(=O)[C@H](C)NC(=O)CNC(=O)[C@H](CO)NC(=O)[C@H](CO)NC(=O)[C@@H]1CCCN1C(=O)CNC(=O)CNC(=O)[C@H](C)NC(=O)[C@H](CC(C)C)NC(=O)[C@H](CC(C)C)NC(=O)[C@H](Cc1c[nH]c2ccccc12)NC(=O)[C@H](CC(N)=O)NC(=O)[C@@H](NC(=O)[C@H](Cc1ccccc1)NC(=O)[C@H](CCC(=O)O)NC(=O)C(C)(C)NC(=O)[C@H](C)NC(=O)[C@H](C)NC(=O)[C@H](CCC(N)=O)NC(=O)[C@H](CCCCN)NC(=O)[C@H](CC(=O)O)NC(=O)[C@H](CC(C)C)NC(=O)[C@H](Cc1ccc(O)cc1)NC(=O)[C@@H](NC(=O)[C@H](CO)NC(=O)[C@H](Cc1ccc(O)cc1)NC(=O)[C@H](CC(=O)O)NC(=O)[C@H](CO)NC(=O)[C@@H](NC(=O)[C@H](Cc1ccccc1)NC(=O)[C@@H](NC(=O)CNC(=O)[C@H](CCC(=O)O)NC(=O)CC(C)(C)NC(=O)CCN1CCCCC1=O)[C@@H](C)O)[C@@H](C)O)[C@@H](C)CC)C(C)C)C(N)=O)C(=O)O [Compound 3],–,–,–,–,> 1000,96,0.1 to 1,96,0.1 to 1,–
CC[C@H](C)[C@H](NC(=O)[C@H](CO)NC(=O)[C@H](Cc1ccc(O)cc1)NC(=O)[C@H](CC(=O)O)NC(=O)[C@H](CO)NC(=O)[C@@H](NC(=O)[C@H](Cc1ccccc1)NC(=O)[C@@H](NC(=O)CNC(=O)[C@H](CCC(=O)O)NC(=O)CSCC(=O)NCCN1C(=O)c2ccccc2C1=O)[C@@H](C)O)[C@@H](C)O)C(=O)N[C@@H](Cc1ccc(O)cc1)C(=O)N[C@@H](CC(C)C)C(=O)N[C@@H](CC(=O)O)C(=O)N[C@@H](CCC(=O)O)C(=O)N[C@@H](CCC(N)=O)C(=O)N[C@@H](C)C(=O)N[C@@H](C)C(=O)NC(C)(C)C(=O)N[C@@H](CCC(=O)O)C(=O)N[C@@H](Cc1ccccc1)C(=O)N[C@H](C(=O)N[C@@H](CC(N)=O)C(=O)N[C@@H](Cc1c[nH]c2ccccc12)C(=O)N[C@@H](CC(C)C)C(=O)N[C@@H](CC(C)C)C(=O)N[C@@H](C)C(=O)NCC(=O)NCC(=O)N1CCC[C@H]1C(=O)N[C@@H](CO)C(=O)N[C@@H](CO)C(=O)NCC(=O)N[C@@H](C)C(=O)N1CCC[C@H]1C(=O)N1CCC[C@H]1C(=O)N1CCC[C@H]1C(=O)N[C@@H](CO)C(=O)N[C@@H](CCCCN)C(N)=O)C(C)C [compound 150] (X1-EGTFTSDYSIYLDEQAA[Aib]EFVNWLLAGGPSSGAPPPSK-NH2),118 to 130,–,–,–,–,–,–,–,–,> 1000
